Experiment [1] is described as follows: DRUGMATRIX: Calcium Channel Type L, Dihydropyridine radioligand binding (ligand: [3H] Nitrendipine). Format: cell membranes, Rattus norvegicus, Wistar, Cerebral cortex, Membrane. To be noted: Not Active = under 50% inhibition at 10 µM.
In experiment [2] the target is T1, Muscarinic acetylcholine receptor M4 (Homo sapiens, UniProt P08173). Also: in other assays of this panel Not Active means under 50% inhibition at 10 µM.
T1 sequence (P08173 whole entry): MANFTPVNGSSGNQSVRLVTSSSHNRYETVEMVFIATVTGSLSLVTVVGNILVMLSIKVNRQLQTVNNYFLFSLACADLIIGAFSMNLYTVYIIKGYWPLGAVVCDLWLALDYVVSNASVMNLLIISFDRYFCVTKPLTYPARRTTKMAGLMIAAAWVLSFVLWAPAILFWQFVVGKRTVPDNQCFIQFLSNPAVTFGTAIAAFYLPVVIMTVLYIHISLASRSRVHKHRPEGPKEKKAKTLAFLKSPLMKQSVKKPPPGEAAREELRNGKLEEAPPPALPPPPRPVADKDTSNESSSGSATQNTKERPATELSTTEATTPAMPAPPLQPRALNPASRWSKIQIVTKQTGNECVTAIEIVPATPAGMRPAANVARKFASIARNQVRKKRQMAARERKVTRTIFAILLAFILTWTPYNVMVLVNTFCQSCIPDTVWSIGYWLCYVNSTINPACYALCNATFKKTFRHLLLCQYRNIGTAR
The format is cell membranes, CHO-K1, Membrane. To be noted: for Ki: read-out: Ki.

For experiment [3], the target named is Carbonic anhydrase 2 (Homo sapiens, UniProt P00918). Briefly: DRUGMATRIX: Carbonic Anhydrase II enzyme inhibition (substrate: 4-Nitrophenyl acetate (4-NPA)). Format: tissue-based. To be noted: erythrocyte; Not Active = under 50% inhibition at 10 µM.
The target in experiment [4] is T2, Thromboxane-A synthase (Homo sapiens, UniProt P24557).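 Also: enzyme inhibition assay with PGH2 supplied as substrate; in other assays of this panel Not Active means under 50% inhibition at 10 µM.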
T2 sequence (P24557 whole entry): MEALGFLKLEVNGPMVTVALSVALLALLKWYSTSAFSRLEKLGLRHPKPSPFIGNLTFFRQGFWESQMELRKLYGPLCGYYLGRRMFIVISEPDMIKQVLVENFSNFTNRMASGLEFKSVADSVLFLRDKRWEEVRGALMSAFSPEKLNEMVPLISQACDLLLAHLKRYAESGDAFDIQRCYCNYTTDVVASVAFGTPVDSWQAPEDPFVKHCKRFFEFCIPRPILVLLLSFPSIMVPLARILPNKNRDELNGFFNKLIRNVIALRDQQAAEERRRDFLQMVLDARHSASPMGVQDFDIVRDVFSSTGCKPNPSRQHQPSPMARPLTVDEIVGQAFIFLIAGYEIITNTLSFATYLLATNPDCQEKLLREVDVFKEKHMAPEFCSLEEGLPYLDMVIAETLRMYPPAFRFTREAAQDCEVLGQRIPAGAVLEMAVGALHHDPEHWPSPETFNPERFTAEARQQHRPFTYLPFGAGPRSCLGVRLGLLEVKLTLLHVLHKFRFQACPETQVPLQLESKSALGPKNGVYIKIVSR
Briefly: biochemical. Format: tissue-based, Platelet.

In experiment [5] the target is T3, Neutrophil elastase (Homo sapiens, UniProt P08246).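 Also: inhibition of neutrophil elastase enzyme activity, measured with a p-nitroanilide-linked peptide substrate; in other assays of this panel Not Active means under 50% inhibition at 10 µM.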
T3 sequence (P08246 whole entry): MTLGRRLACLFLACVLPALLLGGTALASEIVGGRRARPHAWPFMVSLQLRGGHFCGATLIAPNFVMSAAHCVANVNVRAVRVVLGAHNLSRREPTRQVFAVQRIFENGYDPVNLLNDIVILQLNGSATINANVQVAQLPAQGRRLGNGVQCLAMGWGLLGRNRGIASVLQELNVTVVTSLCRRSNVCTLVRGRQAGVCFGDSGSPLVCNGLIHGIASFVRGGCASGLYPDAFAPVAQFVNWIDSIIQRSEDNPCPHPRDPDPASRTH
The format is tissue-based.

The target in experiment [6] is Tyrosine-protein kinase Fyn (Homo sapiens, UniProt P06241). Briefly: biochemical. The format is cell-based, Insect cells.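 Also: enzymatic inhibition of Fyn kinase activity measured with Poly(Glu:Tyr) as the phosphorylation substrate; in other assays of this panel Not Active means under 50% inhibition at 10 µM.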
Sequence of Tyrosine-protein kinase Fyn (P06241 whole entry): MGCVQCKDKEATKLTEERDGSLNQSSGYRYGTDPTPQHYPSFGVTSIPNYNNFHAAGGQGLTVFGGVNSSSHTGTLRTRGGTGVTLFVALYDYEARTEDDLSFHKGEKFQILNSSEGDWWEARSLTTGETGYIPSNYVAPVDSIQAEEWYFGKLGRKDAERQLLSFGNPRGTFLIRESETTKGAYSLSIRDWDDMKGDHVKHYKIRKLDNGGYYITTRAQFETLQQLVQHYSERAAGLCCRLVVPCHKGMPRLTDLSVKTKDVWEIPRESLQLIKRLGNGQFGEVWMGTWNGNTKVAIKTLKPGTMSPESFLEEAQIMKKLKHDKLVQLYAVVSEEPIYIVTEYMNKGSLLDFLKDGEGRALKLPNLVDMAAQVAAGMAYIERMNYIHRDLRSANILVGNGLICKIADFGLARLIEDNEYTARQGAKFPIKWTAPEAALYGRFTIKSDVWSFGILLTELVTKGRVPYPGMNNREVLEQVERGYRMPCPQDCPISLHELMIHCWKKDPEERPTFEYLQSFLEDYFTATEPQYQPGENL

Structures are written as SMILES.

The term IC50 denotes the concentration at which inhibition is half-maximal. A word on the Ki: it is the equilibrium dissociation constant of an inhibitor or competing ligand from its target.

As to `Cc1c(C)c2c(c(C)c1O)CCC(C)(CN1CCN(c3cc(N4CCCC4)nc(N4CCCC4)n3)CC1)O2` (stereo not given), the IC50 in experiment [1] (read-out: IC50) was 1.66 µM; in experiment [2] (cho-k1) it was “Not Active”; in experiment [3] it was “Not Active”; in experiment [4] (platelet), “Not Active”; in experiment [5] it was “Not Active”; in experiment [6] (read-out: IC50), 1.65 µM. Moreover, the inhibition constant (Ki) in experiment [1] (read-out: Ki) came to 1.07 µM.
Turning to `COc1ccc(CCN(C)CCCC(C#N)(c2ccc(OC)c(OC)c2)C(C)C)cc1OC` (stereo not given), the half-inhibitory concentration (IC50) entry in experiment [1], in experiment [2] (cho-k1), in experiment [3], in experiment [4] (platelet), in experiment [5] and in experiment [6] (insect cells) was “Not Active” throughout. Further, the inhibition constant (Ki) result in experiment [1] is “Not Active”.
As for `CC(C)Cc1ccc([C@@H](C)C(=O)O)cc1` [(R)-IBUPROPHEN], the concentration for half-maximal inhibition (IC50) entry in experiment [1], in experiment [2] (cho-k1), in experiment [3], in experiment [4] (platelet), in experiment [5] and in experiment [6] (insect cells) was “Not Active” throughout. In addition, the Ki entry in experiment [1] is given as “Not Active”.
For the compound `CN(C)CCOC(c1ccccc1)c1ccccc1` [DIPHENHYDRAMINE], the IC50 entry in experiment [3], in experiment [4] (platelet), in experiment [5] and in experiment [6] (insect cells) was “Not Active” throughout.
Consider `Clc1ccc(COC(Cn2ccnc2)c2ccc(Cl)cc2Cl)cc1` (stereo not given) [ECONAZOLE], for which the half-inhibitory concentration (IC50) in experiment [2] (read-out: IC50) is 2.12 µM; in experiment [3], “Not Active”; in experiment [4] (read-out: IC50), 0.029 µM; in experiment [5], “Not Active”; in experiment [6] (read-out: IC50) it was 12.1 µM. In addition, in experiment [2], the Ki stood at 0.296 µM.
As for `CCN(CC)CCOc1ccc(/C(=C(/Cl)c2ccccc2)c2ccccc2)cc1` [ENCLOMIPHENE], the IC50 in experiment [2] (read-out: IC50) was 1.65 µM; in experiment [3], “Not Active”; in experiment [4] (platelet) it was “Not Active”; in experiment [5] it was “Not Active”; in experiment [6] (read-out: IC50), 2.51 µM. The Ki in experiment [2] was determined as 0.23 µM.
Regarding `Fc1ccc(C(c2ccc(F)cc2)N2CCN(C/C=C/c3ccccc3)CC2)cc1` [FLUNARIZINE], the IC50 in experiment [2] (read-out: IC50) was 5.66 µM; in experiment [3] it was “Not Active”; in experiment [4] (platelet), “Not Active”; in experiment [5], “Not Active”; in experiment [6] (insect cells), “Not Active”. Moreover, the Ki in experiment [2] came out at 0.789 µM.
`CNCCC(Oc1ccc(C(F)(F)F)cc1)c1ccccc1` (stereo not given) [FLUOXETINE]: the IC50 result in experiment [2] (cho-k1), in experiment [3], in experiment [4] (platelet), in experiment [5] and in experiment [6] (insect cells) was “Not Active” in each case.
For `Cc1ccc(NC(=O)c2ccc(CN3CCN(C)CC3)cc2)cc1Nc1nccc(-c2cccnc2)n1` [IMATINIB], the IC50 result was “Not Active” in experiment [2] (cho-k1), 0.198 µM in experiment [4] (read-out: IC50) and “Not Active” in experiment [5].
As to `CC(C)Oc1ccc2c(=O)c(-c3ccccc3)coc2c1` [IPRIFLAVONE], the IC50 entry in experiment [1], in experiment [2] (cho-k1), in experiment [3], in experiment [4] (platelet), in experiment [5] and in experiment [6] (insect cells) was “Not Active” each time. Moreover, in experiment [1], the inhibitory constant (Ki) entry is reported as “Not Active”.
As for `CC(C)NCC(O)c1ccc(O)c(O)c1` (stereo not given) [ISOPROTERENOL], the half-maximal inhibitory concentration (IC50) result in experiment [1], in experiment [2] (cho-k1), in experiment [3], in experiment [4] (platelet), in experiment [5] and in experiment [6] (insect cells) was “Not Active” throughout. For the same compound, in experiment [1], the Ki entry is “Not Active”.
Regarding `CNC1(c2ccccc2Cl)CCCCC1=O` (stereo not given) [KETAMINE], the IC50 result in experiment [1], in experiment [2] (cho-k1), in experiment [3], in experiment [4] (platelet), in experiment [5] and in experiment [6] (insect cells) was “Not Active” each time. In addition, the Ki result in experiment [1] is “Not Active”.
Turning to `N#Cc1ccc(C(c2ccc(C#N)cc2)n2cncn2)cc1` [LETROZOLE], the IC50 entry in experiment [1], in experiment [2] (cho-k1), in experiment [3], in experiment [4] (platelet), in experiment [5] and in experiment [6] (insect cells) was “Not Active” each time. Moreover, the Ki result in experiment [1] is listed as “Not Active”.
Regarding `CCN1CCC[C@H]1CNC(=O)c1cc(S(N)(=O)=O)ccc1OC` [LEVOSULPIRIDE], the IC50 entry in experiment [1], in experiment [2] (cho-k1), in experiment [4] (platelet), in experiment [5] and in experiment [6] (insect cells) was “Not Active” in each case. Moreover, the Ki entry in experiment [1] is recorded as “Not Active”.
As for `CCN(CC)CC(=O)Nc1c(C)cccc1C` [LIDOCAINE], the IC50 result in experiment [1], in experiment [2] (cho-k1), in experiment [3], in experiment [4] (platelet), in experiment [5] and in experiment [6] (insect cells) was “Not Active” each time. Moreover, in experiment [1], the Ki entry is on record as “Not Active”.
Take `O=C1Nc2ccc(Cl)cc2C(c2ccccc2Cl)=NC1O` (stereo not given) [LORAZEPAM]: the 50% inhibitory concentration (IC50) entry in experiment [1], in experiment [2] (cho-k1), in experiment [3], in experiment [4] (platelet), in experiment [5] and in experiment [6] (insect cells) was “Not Active” each time. Also, in experiment [1], the Ki result is “Not Active”.
On to `CO[C@@H]1[C@@H](OC)[C@H](C)[C@@](O)(CC(=O)O)O[C@H]1[C@H](C)[C@H]1O[C@@]2(CC[C@@](C)([C@H]3CC[C@@](C)([C@@H]4O[C@@H]([C@H]5O[C@](C)(O)[C@H](C)C[C@@H]5C)C[C@@H]4O[C@@H]4C[C@H](OC)[C@@H](OC)[C@H](C)O4)O3)O2)C[C@H](O)[C@H]1C` [MADURAMICIN ACID], for which the IC50 result in experiment [1], in experiment [2] (cho-k1), in experiment [3], in experiment [4] (platelet), in experiment [5] and in experiment [6] (insect cells) was “Not Active” throughout. In addition, in experiment [1], the Ki entry is “Not Active”.
Take `COc1c2occc2cc2ccc(=O)oc12` [METHOXSALEN]: the IC50 result in experiment [1], in experiment [2] (cho-k1), in experiment [3], in experiment [4] (platelet), in experiment [5] and in experiment [6] (insect cells) was “Not Active” in each case. Besides, in experiment [1], the Ki result is “Not Active”.
As to `C[C@H]1C[C@@H]2[C@H]([C@@H](O)C[C@@]3(C)[C@H]2CC[C@]3(O)C(=O)CO)[C@@]2(C)C=CC(=O)C=C12` [METHYLPREDNISOLONE], the IC50 result in experiment [1], in experiment [2] (cho-k1), in experiment [3], in experiment [4] (platelet), in experiment [5] and in experiment [6] (insect cells) was “Not Active” in each case. The inhibitory constant (Ki) entry in experiment [1] is on record as “Not Active”.
For `Cc1cccc(C)c1OCC(C)N` (stereo not given) [MEXILETINE], the IC50 entry in experiment [1], in experiment [2] (cho-k1), in experiment [3], in experiment [4] (platelet), in experiment [5] and in experiment [6] (insect cells) was “Not Active” in each case. For the same compound, the inhibition constant Ki entry in experiment [1] is reported as “Not Active”.
With `Nc1cc(N2CCCCC2)nc(N)[n+]1[O-]` [MINOXIDIL], the IC50 result in experiment [1], in experiment [2] (cho-k1), in experiment [3], in experiment [4] (platelet), in experiment [5] and in experiment [6] (insect cells) was “Not Active” throughout. Moreover, in experiment [1], the Ki entry is “Not Active”.
In the case of `CN[C@H]1CC[C@@H](c2ccc(Cl)c(Cl)c2)c2ccccc21` [SERTRALINE], the IC50 in experiment [2] (read-out: IC50) is 2.63 µM; in experiment [3], “Not Active”; in experiment [4] (platelet) it was “Not Active”; in experiment [5], “Not Active”; in experiment [6] (insect cells), “Not Active”. Moreover, the Ki in experiment [2] came to 0.367 µM.

The record behind these values is ChEMBL document CHEMBL1909046, “DrugMatrix in vitro pharmacology data”.
